From article PMC5508574 (Nature biotechnology, 2016)

Columns and labels:
NCI-H3122 cell line = assay: PRISM compound assay, mixture of 25 barcoded lung adenocarcinoma cell lines; format: cell-based, human; conditions: 0–10 μM, 5 days, in mixture
NCI-H2228 = assay: as above; format: cell-based, human; conditions: 0–10 μM, 5 days, in mixture
[1] = system: BRAF-mutant vs BRAF wild-type cell lines; assay: PRISM, 100 barcoded cell lines in 4 pools of 25, BRAF genotype comparison; conditions: AUC of viability, 100 cell lines, PRISM (and Nuclei, ATP)
[2] = system: 4 EGFR-mutant cell lines in the pool; assay: PRISM compound assay, mixture of 25 barcoded lung adenocarcinoma cell lines; format: cell-based, human; conditions: 0–10 μM, 5 days, viability relative to DMSO
[3] = system: 25 barcoded lung adenocarcinoma cell lines in mixture; assay: as above; format: cell-based, human; conditions: 0–10 μg/ml, 5 days, viability relative to DMSO

COc1cc(N2CCC(N3CCN(C)CC3)CC2)ccc1Nc1ncc(Cl)c(Nc2ccccc2S(=O)(=O)C(C)C)n1 [NVP-TAE-684]
Sensitivity of NCI-H3122 (EML4-ALK translocation) (NCI-H3122 cell line): sensitive | Sensitivity of NCI-H2228 (different EML4-ALK translocation) (NCI-H2228): intrinsic resistance

CCCS(=O)(=O)Nc1ccc(F)c(C(=O)c2c[nH]c3ncc(Cl)cc23)c1F [PLX4720]
Differential sensitivity of BRAF-mutant vs BRAF wild-type cell lines [1]: hypersensitivity

C#Cc1cccc(Nc2ncnc3cc(OCCOC)c(OCCOC)cc23)c1 [erlotinib]
Killing of EGFR-mutant cell lines in the pool [2]: dose-dependent killing

COc1ccc(C[C@H](N)C(=O)N[C@H]2[C@@H](O)[C@H](n3cnc4c(N(C)C)ncnc43)O[C@@H]2CO)cc1 [puromycin]
Pattern of cell killing across the pool [3]: uniform killing across the pool

CNC(=O)c1cc(Oc2ccc(NC(=O)Nc3ccc(Cl)c(C(F)(F)F)c3)cc2)ccn1 [sorafenib]
Differential sensitivity of BRAF-mutant vs BRAF wild-type cell lines [1]: No significant differential sensitivity
